Data from US20240067657A1, “AMIDO-SUBSTITUTED PYRIDYL COMPOUNDS AND METHODS OF USE THEREOF FOR THE TREATMENT OF HERPESVIRUSES” (Merck Sharp & Dohme LLC, priority 2020, published 2024).
Like-named read-outs stand apart in the source and are kept apart here.

What was measured:
[1] = molecular target: T1, Human cytomegalovirus DNA polymerase (Human cytomegalovirus, UniProt P08546); assay: HCMV polymerase assay (AlphaLISA, IC50); type: biochemical; details: polymerase assay of Example 190
T1 construct: made in house; host or cells: SF21 insect cells (baculovirus vector)
T1 sequence (P08546 whole entry): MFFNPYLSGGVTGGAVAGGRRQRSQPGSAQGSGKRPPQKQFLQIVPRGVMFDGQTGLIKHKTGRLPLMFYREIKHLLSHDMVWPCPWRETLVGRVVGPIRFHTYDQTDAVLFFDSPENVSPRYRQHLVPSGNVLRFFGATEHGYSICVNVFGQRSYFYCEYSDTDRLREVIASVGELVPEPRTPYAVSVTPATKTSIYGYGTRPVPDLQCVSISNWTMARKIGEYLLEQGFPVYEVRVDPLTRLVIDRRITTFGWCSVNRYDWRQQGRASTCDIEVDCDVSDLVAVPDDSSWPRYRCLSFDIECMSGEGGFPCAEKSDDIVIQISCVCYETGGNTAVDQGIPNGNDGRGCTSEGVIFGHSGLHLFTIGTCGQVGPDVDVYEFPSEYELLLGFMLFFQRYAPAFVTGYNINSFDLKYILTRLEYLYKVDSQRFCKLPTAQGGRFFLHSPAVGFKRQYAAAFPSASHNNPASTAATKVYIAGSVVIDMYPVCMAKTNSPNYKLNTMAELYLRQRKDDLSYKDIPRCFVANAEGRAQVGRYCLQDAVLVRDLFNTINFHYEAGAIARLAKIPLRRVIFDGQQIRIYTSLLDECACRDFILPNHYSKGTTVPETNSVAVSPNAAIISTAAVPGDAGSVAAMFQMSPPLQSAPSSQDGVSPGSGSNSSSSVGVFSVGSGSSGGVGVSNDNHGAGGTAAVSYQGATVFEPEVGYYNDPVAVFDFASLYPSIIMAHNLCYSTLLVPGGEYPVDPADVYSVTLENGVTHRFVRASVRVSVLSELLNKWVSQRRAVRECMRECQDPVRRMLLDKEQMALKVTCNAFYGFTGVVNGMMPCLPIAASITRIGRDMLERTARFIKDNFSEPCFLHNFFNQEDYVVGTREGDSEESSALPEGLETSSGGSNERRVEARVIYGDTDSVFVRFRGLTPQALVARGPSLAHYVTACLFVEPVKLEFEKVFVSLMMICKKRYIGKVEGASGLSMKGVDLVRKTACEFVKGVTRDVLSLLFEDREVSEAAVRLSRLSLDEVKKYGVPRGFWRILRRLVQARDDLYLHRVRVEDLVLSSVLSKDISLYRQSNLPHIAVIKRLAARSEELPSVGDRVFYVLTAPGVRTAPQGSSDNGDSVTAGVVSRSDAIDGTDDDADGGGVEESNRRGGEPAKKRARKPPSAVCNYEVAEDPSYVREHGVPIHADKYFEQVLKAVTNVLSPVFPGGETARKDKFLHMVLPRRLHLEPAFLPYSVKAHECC
Outline: (§1)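 Baculovirus-expressed polymerase (HCMV 0.2 nM, VZV 0.4 nM final) preincubated 30 min at room temperature with compound in pH 7.5 HEPES buffer; reaction started with 1.6 nM DIG-primer/template and nM dNTPs including biotin-dUTP, run 60 min at 37° C. Incorporation detected by AlphaLISA; IC50 from 4-parameter fit.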

[2] = molecular target: T2, varicella zoster virus DNA polymerase (Varicella-zoster virus, UniProt P09252); assay: VZV polymerase assay (AlphaLISA, IC50); type: biochemical; details: polymerase assay of Example 190
T2 construct: made in house; host or cells: SF21 insect cells (baculovirus vector)
T2 sequence (P09252 whole entry): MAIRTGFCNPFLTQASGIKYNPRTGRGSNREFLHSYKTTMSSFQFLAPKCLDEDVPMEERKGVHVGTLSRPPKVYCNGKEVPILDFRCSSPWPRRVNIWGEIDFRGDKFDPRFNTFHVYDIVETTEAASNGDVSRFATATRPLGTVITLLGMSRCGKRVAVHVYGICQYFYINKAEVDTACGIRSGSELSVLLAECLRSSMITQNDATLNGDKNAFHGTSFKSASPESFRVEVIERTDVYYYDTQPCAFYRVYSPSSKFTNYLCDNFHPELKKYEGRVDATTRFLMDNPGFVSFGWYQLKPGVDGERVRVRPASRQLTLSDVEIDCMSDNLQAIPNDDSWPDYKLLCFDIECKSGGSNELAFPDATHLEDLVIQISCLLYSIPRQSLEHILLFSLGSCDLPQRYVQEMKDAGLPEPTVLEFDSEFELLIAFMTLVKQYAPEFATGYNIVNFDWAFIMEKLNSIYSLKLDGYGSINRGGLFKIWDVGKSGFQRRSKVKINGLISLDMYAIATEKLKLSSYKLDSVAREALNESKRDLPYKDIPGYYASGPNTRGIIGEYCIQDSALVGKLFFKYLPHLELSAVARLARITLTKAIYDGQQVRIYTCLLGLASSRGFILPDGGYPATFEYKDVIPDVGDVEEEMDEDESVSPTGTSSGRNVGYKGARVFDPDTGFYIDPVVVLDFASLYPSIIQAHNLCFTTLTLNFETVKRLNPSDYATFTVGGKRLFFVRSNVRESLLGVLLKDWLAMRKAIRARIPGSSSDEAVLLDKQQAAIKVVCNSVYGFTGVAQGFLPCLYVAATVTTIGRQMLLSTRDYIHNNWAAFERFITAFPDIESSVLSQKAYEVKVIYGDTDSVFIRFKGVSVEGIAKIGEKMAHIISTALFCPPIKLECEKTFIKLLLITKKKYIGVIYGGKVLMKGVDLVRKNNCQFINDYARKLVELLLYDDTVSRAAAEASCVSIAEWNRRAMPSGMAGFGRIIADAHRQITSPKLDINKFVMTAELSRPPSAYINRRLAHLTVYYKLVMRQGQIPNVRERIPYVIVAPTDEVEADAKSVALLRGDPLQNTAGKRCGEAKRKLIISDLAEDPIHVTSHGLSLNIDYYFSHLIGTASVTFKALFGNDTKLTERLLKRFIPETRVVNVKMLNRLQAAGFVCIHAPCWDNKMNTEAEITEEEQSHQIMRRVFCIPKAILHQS
Outline: as §1

[3] = tested on: HCMV Strain AD169 in MRC-5 cells; assay: Viral qPCR assay HCMV (V0/V1, V2/V3), EC50; type: cell-based; details: Human betaherpesvirus 5, AD169, MRC5, viral qPCR assay of Example 191; read-out: HCMV Cell (EC50)
Outline: (§2)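 Infected cells added to compounds (10-point 3-fold series), ~72 h at 37 °C, then lysed; viral genomes by TaqMan qPCR against plasmid standard, normalized to PPIA in V0/V1 only, EC50 from 4-parameter fit. HCMV AD169, 0.05-0.1 pfu/cell, ± 50% FBS; VZV 0.04-0.1 pfu/cell; HSV-1 F 0.0005-0.004 pfu/cell.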

[4] = tested on: VZV in MeWo or MRC5 cells; assay: Viral qPCR assay VZV (V0/V1, V2/V3), EC50; type: cell-based; details: 10%
Outline: as §2

[5] = tested on: HSV-1 Strain F in Vero or MRC5 cells; assay: Viral qPCR assay HSV-1 (V0/V1, V2/V3), EC50; type: cell-based; details: 10%
Outline: as §2

[6] = Human alphaherpesvirus 3, MeWo, MEWO cells, read-out: VZV Cell (EC50) MEWO 10%
[7] = Human alphaherpesvirus 1, Vero, VERO cells, read-out: HSV1 Cell (EC50) VERO 10%
[8] = Human alphaherpesvirus 3, MRC5, MRC5 cells, read-out: VZV Cell (EC50) MRC5 10%
[9] = Human alphaherpesvirus 1, MRC5, MRC5 cells, read-out: HSV1 Cell (EC50) MRC5 10%

| Compound | IC50 [1] [µM] | IC50 [2] [µM] | EC50 [3] [µM] | EC50 [4, 6] [µM] | EC50 [5, 7] [µM] | EC50 [4, 8] [µM] | EC50 [5, 9] [µM] |
| --- | --- | --- | --- | --- | --- | --- | --- |
| O=C(NCc1ccc(Cl)cc1)c1cc(O[C@H]2CCN3C(=O)OC[C@@H]3C2)c(-c2ccn(CC(F)(F)F)n2)cn1 [Compound 14] | 0.0439 | 0.0409 | 0.563 | 0.234 | 0.319 |  |  |
| CC(C)n1ccc(-c2cnc(C(=O)NCc3ccc(Cl)cc3)cc2O[C@H]2CCN3C(=O)OC[C@@H]3C2)n1 [Compound 15] | 0.0292 | 0.0199 | 0.176 | 0.159 | 0.16 |  |  |
| O=C(NCc1ccc(Cl)cc1)c1cc(O[C@H]2CCN3C(=O)OC[C@@H]3C2)c(-c2cnn(CC(F)(F)F)c2)cn1 [Compound 17] | 0.0231 | 0.021 | 0.38 | 0.368 | 0.426 |  |  |
| O=C(NCc1ccc(Cl)cc1)c1cc(O[C@H]2CCN3C(=O)OC[C@@H]3C2)c(-c2cc[nH]n2)cn1 [Compound 18] | 0.0157 | 0.0105 | 0.12 | 0.392 | 0.836 | 0.126 | 0.194 |
| O=C(NCc1ccc(Cl)cc1)c1cc(O[C@H]2CCN3C(=O)OC[C@@H]3C2)c(-c2cnn(C3CC3)c2)cn1 [Compound 19] | 0.0174 | 0.00912 | 0.214 | 0.105 | 0.316 |  |  |
| O=C(NCc1ccc(Cl)cc1)c1cc(O[C@H]2CCN3C(=O)OC[C@@H]3C2)c(-c2cnn3c2COCC3)cn1 [Compound 20] | 0.0164 | 0.0128 | 0.132 |  |  | 0.343 | 0.235 |
| CC(C)n1cc(-c2cnc(C(=O)NCc3ccc(Cl)cc3)cc2O[C@H]2CCN3C(=O)OC[C@@H]3C2)cn1 [Compound 21] | 0.0156 | 0.0139 | 0.282 | 0.205 | 0.206 |  |  |
| O=C(NCc1ccc(Cl)cc1)c1cc(O[C@H]2CCN3C(=O)OC[C@@H]3C2)c(-c2cnc(CO)s2)cn1 [Compound 22] | 0.000222 | 0.00113 | 0.0688 |  | 0.224 | 0.109 | 0.15 |
| O=C(NCc1ccc(Cl)cc1)c1cc(O[C@H]2CCN3C(=O)OC[C@@H]3C2)c(-c2cnco2)cn1 [Compound 24] | 0.0016 | ≤ 0.000444 | 0.0987 |  |  | 0.121 | 0.0564 |
| O=C(NCc1ccc(Cl)cc1)c1cc(O[C@H]2CCN3C(=O)OC[C@@H]3C2)c(-c2ccn(C(F)F)n2)cn1 [Compound 26] | 0.0139 | 0.0139 | 0.28 |  | 0.119 | 4.59 | ≥ 80.2 |
| O=C(NCc1ccc(Cl)cc1)c1cc(O[C@H]2CCN3C(=O)OC[C@@H]3C2)c(-c2cnn(CC(F)F)c2)cn1 [Compound 27] | 0.0141 | 0.0125 | 0.138 | 0.248 | 0.3 |  |  |
| COCCn1ccc(-c2cnc(C(=O)NCc3ccc(Cl)cc3)cc2O[C@H]2CCN3C(=O)OC[C@@H]3C2)n1 [Compound 28] | 0.0147 | 0.0127 | 0.325 | 0.421 | 0.327 |  |  |
| Cn1cc(-c2cnc(C(=O)NCc3ccc(Cl)cc3)cc2O[C@H]2CCN3C(=O)OC[C@@H]3C2)cn1 [Compound 29] | 0.00924 | 0.00785 | 0.107 | 0.0516 | 0.184 | 0.109 | 0.102 |
| Cn1ccc(-c2cnc(C(=O)NCc3ccc(Cl)cc3)cc2O[C@H]2CCN3C(=O)OC[C@@H]3C2)n1 [Compound 30] | 0.00986 | 0.0163 | 0.116 | 0.082 | 0.132 | 0.121 | 0.0782 |
| COCCn1cc(-c2cnc(C(=O)NCc3ccc(Cl)cc3)cc2O[C@H]2CCN3C(=O)OC[C@@H]3C2)cn1 [Compound 31] | 0.00859 | 0.00654 | 0.117 | 0.111 | 0.309 | 0.26 | 0.224 |
| Cc1ncc(-c2cnc(C(=O)NCc3ccc(Cl)cc3)cc2O[C@H]2CCN3C(=O)OC[C@@H]3C2)o1 [Compound 32] | 0.00273 | 0.00055 | 0.0767 |  |  | 0.106 | 0.075 |
| O=C(NCc1ccc(Cl)cc1)c1cc(O[C@H]2CCN3C(=O)OC[C@@H]3C2)c(-c2cnc(C3CC3)o2)cn1 [Compound 33] | 0.00624 | 0.00272 | 0.121 |  |  | 0.194 | 0.125 |
| O=C(NCc1ccc(Cl)cc1)c1cc(O[C@H]2CCN3C(=O)OC[C@@H]3C2)c(-c2cnn(CCO)c2)cn1 [Compound 34] | 0.0069 | 0.00477 | 0.0713 | 0.19 | 1.24 |  | 0.412 |
| CC(C)(O)Cn1cc(-c2cnc(C(=O)NCc3ccc(Cl)cc3)cc2O[C@H]2CCN3C(=O)OC[C@@H]3C2)cn1 [Compound 35] | 0.00815 | 0.0075 | 0.396 |  | 1 | 0.44 | 0.205 |
| O=C(NCc1ccc(Cl)cc1)c1cc(O[C@H]2CCN3C(=O)OC[C@@H]3C2)c(-c2cnn(C3COC3)c2)cn1 [Compound 36] | 0.00444 | 0.00247 | 0.172 |  | 0.432 | 0.175 | 0.146 |
| O=C(NCc1ccc(Cl)cc1)c1cc(O[C@H]2CCN3C(=O)OC[C@@H]3C2)c(-c2cscn2)cn1 [Compound 37] | 0.0159 | 0.00603 | 0.115 | 0.0208 | 0.0356 | 0.13 | 0.101 |
| Cn1cnc(-c2cnc(C(=O)NCc3ccc(Cl)cc3)cc2O[C@H]2CCN3C(=O)OC[C@@H]3C2)c1 [Compound 38] | 0.0116 | 0.00653 | 0.0728 | 0.0532 | 0.194 |  | ≥ 80.2 |
| Cc1nsc(-c2cnc(C(=O)NCc3ccc(Cl)cc3)cc2O[C@H]2CCN3C(=O)OC[C@@H]3C2)n1 [Compound 39] | 0.0103 | 0.00125 | 0.0867 |  |  | 0.098 | 0.0601 |
| O=C(NCc1ccc(Cl)cc1)c1cc(O[C@H]2CCN3C(=O)OC[C@@H]3C2)c(-c2nccs2)cn1 [Compound 40] | 0.0104 | 0.00939 | 0.0557 | 0.0167 | 0.0308 |  |  |
| Cc1cnc(-c2cnc(C(=O)NCc3ccc(Cl)cc3)cc2O[C@H]2CCN3C(=O)OC[C@@H]3C2)s1 [Compound 41] | 0.005 | 0.00388 | 0.0899 | 0.0708 | 0.0122 | 0.0974 | 0.039 |
